Reference: PMC11411711 (ACS Nano, 2024)
pIC50, pKi: −log10 of the molar value. Read-outs that look alike come from different tables or passages of the source. Square brackets hold non-standard residues; d marks the D form. Peptide text beside a SMILES is read from it. * marks the point of attachment. 5FAM = O=C1OC2(c3ccc(O)cc3Oc3cc(O)ccc32)c2ccc(C(=O)*)cc21; Nle = CCCC[C@H](N)C(=O)O; Cbz = O=C(OCc1ccccc1)*

Columns and labels:
calpain [1] = details: cited from earlier work; for pKi: read-out: Ki for calpain; for pIC50: read-out: IC50, calpain inhibitor
cathepsin L = details: read-out: Ki for cathepsin L; calpastatin peptide; ref [32]−[35]; cited from earlier work
[2] = test system: neurofilament and spectrin proteolysis in the cortex; details: continuous intra-arterial infusion after TBI; ref [13],[24]; cited from earlier work
[3] = test system: neuronal and hippocampal culture models of injury; details: ref [16]−[19]; cited from earlier work
calpain-2 = details: read-out: Ki for calpain-2; calpain inhibitor II; ref [13],[24]; cited from earlier work
cathepsin B = details: read-out: Ki for cathepsin B; calpain inhibitor II; ref [13],[24]; cited from earlier work
calpain-1 = details: read-out: Ki for calpain-1; calpain inhibitor II; ref [13],[24]; cited from earlier work
TBI = details: large multicenter clinical trials in TBI; ref [4],[5]; cited from earlier work
[4] = biological target: T1, recombinant human calpain-1 (Homo sapiens, UniProt P07384); experiment: Inhibition of calpain-1 cleavage of CS FRET peptide by titrated CAST/ScrCAST; type: biochemical; details: up to 1 μM; 8 μM CS substrate; 26.6 nM recombinant human calpain-1; 37C
T1 sequence (P07384 1-714): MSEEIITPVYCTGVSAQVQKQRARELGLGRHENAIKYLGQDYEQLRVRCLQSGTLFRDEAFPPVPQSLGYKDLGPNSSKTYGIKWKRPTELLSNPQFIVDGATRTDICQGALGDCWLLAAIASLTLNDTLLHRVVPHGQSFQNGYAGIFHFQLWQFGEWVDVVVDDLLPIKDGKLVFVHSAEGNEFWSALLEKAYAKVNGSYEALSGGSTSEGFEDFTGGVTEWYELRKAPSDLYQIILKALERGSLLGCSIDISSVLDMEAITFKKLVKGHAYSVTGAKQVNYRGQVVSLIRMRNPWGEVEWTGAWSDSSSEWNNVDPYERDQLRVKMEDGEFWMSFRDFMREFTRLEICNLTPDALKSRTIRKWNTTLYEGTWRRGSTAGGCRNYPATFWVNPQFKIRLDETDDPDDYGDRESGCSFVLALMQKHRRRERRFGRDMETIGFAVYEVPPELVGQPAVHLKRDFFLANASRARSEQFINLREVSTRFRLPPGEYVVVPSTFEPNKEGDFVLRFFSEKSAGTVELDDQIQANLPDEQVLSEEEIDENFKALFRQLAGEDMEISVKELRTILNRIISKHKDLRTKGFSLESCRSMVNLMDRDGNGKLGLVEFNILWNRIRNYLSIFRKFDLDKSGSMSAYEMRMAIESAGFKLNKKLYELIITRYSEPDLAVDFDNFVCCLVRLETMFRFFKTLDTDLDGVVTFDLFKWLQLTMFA
T1 sequence (P04632 1-268 partner): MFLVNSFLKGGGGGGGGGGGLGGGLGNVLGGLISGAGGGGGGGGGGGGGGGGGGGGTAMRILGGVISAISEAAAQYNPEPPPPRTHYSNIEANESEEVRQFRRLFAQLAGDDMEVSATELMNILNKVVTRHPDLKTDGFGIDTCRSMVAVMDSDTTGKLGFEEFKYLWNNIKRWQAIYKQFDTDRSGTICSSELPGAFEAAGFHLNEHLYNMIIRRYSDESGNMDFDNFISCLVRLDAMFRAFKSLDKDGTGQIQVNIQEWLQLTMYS

[5] = biological target: T1, recombinant human calpain-1; experiment: CS activation of PEG conjugates by recombinant human calpain-1; type: biochemical; details: 37C, 1 h
calpain [6] = experiment: Activated CS signal in injured cortex and hippocampus, CCI mouse model; details: mouse model of TBI, systemic administration
[7] = test system: calpain activity in the hippocampus; experiment: Activated CS in hippocampal regions; details: dentate gyrus, CA1, CA2, CA3; 1 h after injury; n = 10 mice, unpaired t-test

CC[C@H](C)[C@H](NC(=O)[C@H](Cc1ccc(O)cc1)NC(=O)[C@@H](NC(=O)[C@H](CO)NC(=O)[C@H](CO)NC(=O)[C@H](CCSC)NC(=O)[C@@H]1CCCN1C(=O)[C@@H](N)CC(=O)O)[C@@H](C)O)C(=O)N[C@@H](CCC(=O)O)C(=O)N[C@@H](CCC(=O)O)C(=O)N[C@@H](CC(C)C)C(=O)NCC(=O)N[C@@H](CCCCN)C(=O)N[C@@H](CCCNC(=N)N)C(=O)N[C@@H](CCC(=O)O)C(=O)N[C@H](C(=O)N[C@H](C(=O)N[C@H](C(=O)N1CCC[C@H]1C(=O)N1CCC[C@H]1C(=O)N[C@@H](CCCCN)C(=O)N[C@@H](Cc1ccc(O)cc1)C(=O)N[C@@H](CCCNC(=N)N)C(=O)N[C@@H](CCC(=O)O)C(=O)N[C@@H](CC(C)C)C(=O)N[C@@H](CC(C)C)C(=O)N[C@@H](C)C(=O)N[C@@H](CCCCNC(=O)c1ccc2c(c1)C(=O)OC21c2ccc(O)cc2Oc2cc(O)ccc21)C(=O)N[C@@H](CS)C(N)=O)[C@@H](C)CC)[C@@H](C)O)C(C)C [CAST] (H-DPMSSTYIEELGKREVTIPPKYRELLAK(5FAM)C-NH2; N-terminus assumed)
pKi (calpain [1]; calpastatin peptide, ref [32]−[35]): 7.37
pKi (cathepsin L): 5.22

CC(C)[C@H](NC(=O)OCc1ccccc1)C(=O)N[C@H](C=O)Cc1ccccc1 [MDL-28170] (Cbz-Val-Phe-aldehyde)
pIC50 (calpain [1]; MDL-28170, ref [64]): 7.96
pKi (calpain [1]; MDL-28170, ref [20],[28]): 8.00

CSCC[C@@H](C=O)NC(=O)[C@H](CC(C)C)NC(=O)[C@H](CC(C)C)NC(C)=O [calpain inhibitor II] (Ac-Leu-Leu-Met-aldehyde)
neurofilament and spectrin proteolysis in the cortex [2]: required continuous intra-arterial infusion after TBI to significantly reduce neurofilament and spectrin proteolysis in the cortex
cell apoptosis, actin and spectrin proteolysis, DNA fragmentation [3]: reduce cell apoptosis, suppress actin and spectrin proteolysis, and inhibit DNA fragmentation
pKi (calpain-2): 6.64
pKi (cathepsin B): 7.00
pKi (calpain-1): 6.92

CCCC[C@@H](C=O)NC(=O)[C@H](CC(C)C)NC(=O)[C@H](CC(C)C)NC(C)=O [calpain inhibitor I] (Ac-Leu-Leu-[Nle]-aldehyde)
pIC50 (calpain [1]; calpain inhibitor I, ref [63]): 7.05

CC(=O)[C@H]1CC[C@H]2[C@@H]3CCC4=CC(=O)CC[C@]4(C)[C@H]3CC[C@]12C [progesterone]
efficacy as acute stage neuroprotective treatment (TBI): failed to establish efficacy as an acute stage neuroprotective treatment

APRLEIVPTMYIYKLSPTGSEKLEDER-K(5FAM)-C-NH2 [ScrCAST]
detectable inhibitory activity on calpain-1 [4]: does not have any detectable inhibitory activity up to 1 μM

CAST–PEG–CS: 40 kDa 8-arm PEG scaffold modified with CAST and CS peptide (activity-based nanotheranostic) (chain 1 DPMSSTYIEELGKREVTIPPKYRELLAKC; chain 2 QEVYGAMPKGC; not fully specified; 5FAM on the added lysine; C-terminal amide; cysteine joined to the 8-arm PEG by maleimide chemistry | QSY21 on the N-terminus; Cy5 on the lysine; PEG2 spacer between K(Cy5) and GC; c)
inhibition of calpain-1 at increased enzyme concentration ([5]; calpain-1 up to 6U (∼380 nM), 8 μM CS): able to inhibit activity and cleavage of the CS substrate compared to ScrCAST–PEG–CS
CS activation by calpain-1 ([5]; conjugates matched to 8 μM CS, 26.6 nM recombinant human calpain-1, Cy5 fluorescence): no measured activation of CS peptide
inhibition of calpain activity, cortical vs hippocampal neurons (calpain [6]): greater ABNT-mediated inhibition of calpain activity in cortical neurons compared to that in hippocampal neurons
sensor activation in hippocampal regions [7]: inhibits activation of CS in the injured hippocampus
